PubChem BioAssay AID1259407 (Chemical Carcinogenesis Research Information System (CCRIS), 2018)
Activity calls are given as the source filed them. How the calls were made is not given here.

Test system: CCRIS mutagenicity, Ames/micronucleus/aberration tests
Experiment: CCRIS mutagenicity studies
[1] = End Point: IN VITRO CHROMOSOMAL ABERRATIONS, Test System: CHO CELLS, Metabolic Activation: NONE
[2] = End Point: IN VITRO CHROMOSOMAL ABERRATIONS, Test System: CHO CELLS, Metabolic Activation: RAT, LIVER, S-9, AROCLOR 1254
[3] = Test System: AMES SALMONELLA TYPHIMURIUM, Strain/Indicator: TA97, Metabolic Activation: NONE, Method: PREINCUBATION
[4] = Test System: AMES SALMONELLA TYPHIMURIUM, Strain/Indicator: TA98, Metabolic Activation: HAMSTER, LIVER, S-9, AROCLOR 1254, Method: PREINCUBATION
[5] = Test System: AMES SALMONELLA TYPHIMURIUM, Strain/Indicator: TA98, Metabolic Activation: RAT, LIVER, S-9, AROCLOR 1254, Method: PREINCUBATION
[6] = Test System: AMES SALMONELLA TYPHIMURIUM, Strain/Indicator: TA100, Metabolic Activation: HAMSTER, LIVER, S-9, AROCLOR 1254, Method: PREINCUBATION
[7] = Test System: AMES SALMONELLA TYPHIMURIUM, Strain/Indicator: TA100, Metabolic Activation: RAT, LIVER, S-9, AROCLOR 1254, Method: PREINCUBATION
[8] = Test System: AMES SALMONELLA TYPHIMURIUM, Strain/Indicator: TA1535, Metabolic Activation: HAMSTER, LIVER, S-9, AROCLOR 1254, Method: PREINCUBATION
[9] = Test System: AMES SALMONELLA TYPHIMURIUM, Strain/Indicator: TA1535, Metabolic Activation: NONE, Method: PREINCUBATION
[10] = Test System: AMES SALMONELLA TYPHIMURIUM, Strain/Indicator: TA1535, Metabolic Activation: RAT, LIVER, S-9, AROCLOR 1254, Method: PREINCUBATION
[11] = Test System: AMES SALMONELLA TYPHIMURIUM, Strain/Indicator: TA1537, Metabolic Activation: HAMSTER, LIVER, S-9, AROCLOR 1254, Method: PREINCUBATION
[12] = Test System: AMES SALMONELLA TYPHIMURIUM, Strain/Indicator: TA1537, Metabolic Activation: NONE, Method: PREINCUBATION
[13] = Test System: AMES SALMONELLA TYPHIMURIUM, Strain/Indicator: TA1537, Metabolic Activation: RAT, LIVER, S-9, AROCLOR 1254, Method: PREINCUBATION
[14] = Test System: AMES SALMONELLA TYPHIMURIUM, Strain/Indicator: TA100, Metabolic Activation: NONE, Method: PREINCUBATION

`CN(C)c1ccccc1` was tested, and the mutagenic call [1] was “active; positive; at highest dose”, the mutagenic call [2] was “active; positive” and the mutagenic call (End Point: In vitro chromosomal aberrations, Test System: Chinese hamster lung (CHL/IU) cells, Metabolic Activation: Rat, Liver, S9, Phenobarbital and 5,6-benzoflavone) was “active; positive (structural changes and ploidy)”. For the same compound, the mutagenic call (Test System: AMES SALMONELLA TYPHIMURIUM, Strain/Indicator: TA97, Metabolic Activation: HAMSTER, LIVER, S-9, AROCLOR 1254 (10 OR 30%), Method: PREINCUBATION) was “inactive; negative”, the mutagenic call [3] was “inactive; negative” and the mutagenic call (Test System: AMES SALMONELLA TYPHIMURIUM, Strain/Indicator: TA97, Metabolic Activation: RAT, LIVER, S-9, AROCLOR 1254 (10 OR 30%), Method: PREINCUBATION) was “inactive; negative”. The mutagenic call (Test System: AMES SALMONELLA TYPHIMURIUM, Strain/Indicator: TA98, Metabolic Activation: HAMSTER, LIVER, S-9, AROCLOR 1254 (10 OR 30%), Method: PREINCUBATION) was “inactive; negative”, the mutagenic call [4] was “inactive; negative” and the mutagenic call (Test System: AMES SALMONELLA TYPHIMURIUM, Strain/Indicator: TA98, Metabolic Activation: HAMSTER, LIVER, S-9, PHENOBARBITAL AND BETA-NAPHTHOFLAVONE, Method: PREINCUBATION) was “inactive; negative”. For the same compound, the mutagenic call (Test System: AMES SALMONELLA TYPHIMURIUM, Strain/Indicator: TA98, Metabolic Activation: RAT, LIVER, S-9, AROCLOR 1254 (10 OR 30%), Method: PREINCUBATION) was “inactive; negative”, the mutagenic call [5] was “inactive; negative” and the mutagenic call (Test System: AMES SALMONELLA TYPHIMURIUM, Strain/Indicator: TA100, Metabolic Activation: HAMSTER, LIVER, S-9, AROCLOR 1254 (10 OR 30%), Method: PREINCUBATION) was “inactive; negative”. For the same compound, the mutagenic call [6] was “inactive; negative”, the mutagenic call (Test System: AMES SALMONELLA TYPHIMURIUM, Strain/Indicator: TA100, Metabolic Activation: HAMSTER, LIVER, S-9, PHENOBARBITAL AND BETA-NAPHTHOFLAVONE, Method: PREINCUBATION) was “inactive; negative” and the mutagenic call (Test System: AMES SALMONELLA TYPHIMURIUM, Strain/Indicator: TA100, Metabolic Activation: RAT, LIVER, S-9, AROCLOR 1254 (10 OR 30%), Method: PREINCUBATION) was “inactive; negative”. The mutagenic call [7] was “inactive; negative”, the mutagenic call (Test System: AMES SALMONELLA TYPHIMURIUM, Strain/Indicator: TA102, Metabolic Activation: HAMSTER, LIVER, S-9, PHENOBARBITAL AND BETA-NAPHTHOFLAVONE, Method: PREINCUBATION) was “inactive; negative” and the mutagenic call (Test System: AMES SALMONELLA TYPHIMURIUM, Strain/Indicator: TA102, Metabolic Activation: HAMSTER, LIVER, S-9, SODIUM PHENOBARBITAL AND 5,6-BENZOFLAVONE, Method: PREINCUBATION) was “inactive; negative”. For the same compound, the mutagenic call (Test System: AMES SALMONELLA TYPHIMURIUM, Strain/Indicator: TA102, Metabolic Activation: NONE, Method: PREINCUBATION) was “inactive; negative”, the mutagenic call (Test System: AMES SALMONELLA TYPHIMURIUM, Strain/Indicator: TA104, Metabolic Activation: HAMSTER, LIVER, S-9, PHENOBARBITAL AND BETA-NAPHTHOFLAVONE, Method: PREINCUBATION) was “inactive; negative” and the mutagenic call (Test System: AMES SALMONELLA TYPHIMURIUM, Strain/Indicator: TA104, Metabolic Activation: HAMSTER, LIVER, S-9, SODIUM PHENOBARBITAL AND 5,6-BENZOFLAVONE, Method: PREINCUBATION) was “inactive; negative”. The mutagenic call (Test System: AMES SALMONELLA TYPHIMURIUM, Strain/Indicator: TA104, Metabolic Activation: NONE, Method: PREINCUBATION) was “inactive; negative”, the mutagenic call [8] was “inactive; negative” and the mutagenic call (Test System: AMES SALMONELLA TYPHIMURIUM, Strain/Indicator: TA1535, Metabolic Activation: HAMSTER, LIVER, S-9, PHENOBARBITAL AND BETA-NAPHTHOFLAVONE, Method: PREINCUBATION) was “inactive; negative”. For the same compound, the mutagenic call [9] was “inactive; negative”, the mutagenic call [10] was “inactive; negative” and the mutagenic call [11] was “inactive; negative”. The mutagenic call (Test System: AMES SALMONELLA TYPHIMURIUM, Strain/Indicator: TA1537, Metabolic Activation: HAMSTER, LIVER, S-9, PHENOBARBITAL AND BETA-NAPHTHOFLAVONE, Method: PREINCUBATION) was “inactive; negative”, the mutagenic call [12] was “inactive; negative” and the mutagenic call [13] was “inactive; negative”. The mutagenic call (Test System: E. COLI, Strain/Indicator: WP2UVRA/PKM101, Metabolic Activation: HAMSTER, LIVER, S-9, PHENOBARBITAL AND BETA-NAPHTHOFLAVONE, Method: PREINCUBATION) was “inactive; negative”, the mutagenic call (Test System: E. COLI, Strain/Indicator: WP2UVRA/PKM101, Metabolic Activation: NONE, Method: PREINCUBATION) was “inactive; negative” and the mutagenic call (Test System: E. COLI, Strain/Indicator: WP2UVRA, Metabolic Activation: HAMSTER, LIVER, S-9, PHENOBARBITAL AND BETA-NAPHTHOFLAVONE, Method: PREINCUBATION) was “inactive; negative”. The mutagenic call (Test System: E. COLI, Strain/Indicator: WP2UVRA, Metabolic Activation: NONE, Method: PREINCUBATION) was “inactive; negative”, the mutagenic call (Test System: MOUSE LYMPHOMA TYPHIMURIUM, Strain/Indicator: L5178Y (TK+/TK-), Metabolic Activation: RAT, LIVER, S-9, AROCLOR 1254, Method: SUSPENSION/PLATE) was “active; positive” and the mutagenic call (Test System: MOUSE LYMPHOMA, Strain/Indicator: L5178Y (TK+/TK-), Metabolic Activation: NONE, Method: SUSPENSION/PLATE) was “active; positive”. For the same compound, the mutagenic call (Test System: UDS RODENT HEPATOCYTES, Strain/Indicator: THY INCORP (NON-S-PHASE), Metabolic Activation: NONE, Method: AUTORADIOGRAPHY) was “inactive; negative”.

`CO[C@H](C)[C@](O)(C(=O)OCC1=CCN2CC[C@H](O)[C@@H]12)C(C)C` was tested, and the mutagenic call (Test System: AMES SALMONELLA TYPHIMURIUM, Strain/Indicator: TA100, Metabolic Activation: HAMSTER, LIVER, S-9, PCB, Method: PREINCUBATION) was “inactive; negative; dose related trend; by authors criteria results are positive” and the mutagenic call (Test System: AMES SALMONELLA TYPHIMURIUM, Strain/Indicator: TA100, Metabolic Activation: RAT, LIVER, S-9, PCB, Method: PREINCUBATION) was “inactive; negative; dose related trend; by authors criteria results are positive”.

With `Cc1cn([C@H]2C[C@H](O)[C@@H](CO)O2)c(=O)[nH]c1=O` the mutagenic call [3] was “inactive; negative”, the mutagenic call (Test System: AMES SALMONELLA TYPHIMURIUM, Strain/Indicator: TA97, Metabolic Activation: RAT, LIVER, S-9, AROCLOR 1254, Method: PREINCUBATION) was “inactive; negative” and the mutagenic call [14] was “inactive; negative”. The mutagenic call [7] was “inactive; negative”, the mutagenic call (Test System: CHINESE HAMSTER V-79, Strain/Indicator: V-79 (HPRT)/6-THIOGUANINE, Metabolic Activation: NONE, Method: STANDARD PLATE) was “inactive; negative” and the mutagenic call (Test System: CHINESE HAMSTER V-79, Strain/Indicator: V-79/6-THIOGUANINE, Metabolic Activation: NONE, Method: STANDARD PLATE) was “active; positive”. The mutagenic call (Test System: CHINESE HAMSTER V-79, Strain/Indicator: V-79/8-AZAGUANINE, Metabolic Activation: NONE) was “inactive; negative”.

With `OCCNCCO` the mutagenic call [1] was “inactive; negative”, the mutagenic call [2] was “inactive; negative; weak response at highest dose” and the mutagenic call [4] was “inactive; negative”. The mutagenic call (Test System: AMES SALMONELLA TYPHIMURIUM, Strain/Indicator: TA98, Metabolic Activation: NONE, Method: PREINCUBATION) was “inactive; negative”, the mutagenic call [5] was “inactive; negative” and the mutagenic call [6] was “inactive; negative”. The mutagenic call [14] was “inactive; negative”, the mutagenic call [7] was “inactive; negative” and the mutagenic call [8] was “inactive; negative”. The mutagenic call [9] was “inactive; negative”, the mutagenic call [10] was “inactive; negative” and the mutagenic call [11] was “inactive; negative”. For the same compound, the mutagenic call [12] was “inactive; negative” and the mutagenic call [13] was “inactive; negative”.
